Source: patent US4517189A, “2,6,7,8-Substituted quinazolines, process for production thereof, and use thereof” (Showa Denko K.K., priority 1983, dated 1985)

How the values were obtained:
[1] = system: platelet aggregation induced by arachidonic acid; test: Inhibitory effect on platelet aggregation (arachidonic acid-induced, rabbit platelet-rich plasma); type: cell-based; settings: arachidonic acid 137 μ moles/liter
Experimental: (1) Measurement of inhibitory effect on platelet aggregation:
Blood was drawn from ether-anesthetized rabbits (weighing 2.5 to 3.5 kg) through a canule inserted into the carotid artery. Immediately then, a 3.8% aqueous solution of sodium citrate was added to the collected blood in a volume of 1/10 of the volume of the blood after addition of the aqueous solution citrate solution. The blood was then centrifuged for 15 minutes at 150 G at room temperature to obtain plasma having platelet suspended therein as a supernatant.
An aliquot of 0.435 ml of platelet-rich plasma was put into the cell of an aggregometer adjusted to a temperature of 37° C. and a stirring speed of 1200 rpm. […] An aqueous solution of arachidonic acid as a platelet aggregation inducing agent (the final concentration of arachidonic acid is 137μ moles/liter) was added, and with stirring, changes in absorbance were measured for 10 minutes.
The effect of platelet aggregation inhibition of the test compound was calculated as follows: [formula] ΔC: a change in absorbance in a control run, ΔS: a change in absorbance when the test compound was added.
In the control run, 2.5 μl of dimethyl sulfoxide was added instead of the test compound.

[2] = system: blood pressure (average arterial pressure); test: Blood pressure lowering activity in anesthetized rabbits; type: in vivo, rabbit; settings: average of at least three rabbits
[3] = final concentration 3 μ moles/liter
[4] = final concentration 10 μ moles/liter
[5] = final concentration 30 μ moles/liter
[6] = final concentration 100 μ moles/liter

| Structure (SMILES) | inhibition of platelet aggregation [1, 3] [%] | inhibition of platelet aggregation [1, 4] [%] | inhibition of platelet aggregation [1, 5] [%] | Blood pressure lowering effect ([2]; 10 μg/kg i.v.) [mmHg] | Blood pressure lowering effect ([2]; 30 μg/kg i.v.) [mmHg] | Blood pressure lowering effect ([2]; 100 μg/kg i.v.) [mmHg] | inhibition of platelet aggregation ([1]; final concentration 1 μ moles/liter) [%] | inhibition of platelet aggregation [1, 6] [%] |
| --- | --- | --- | --- | --- | --- | --- | --- | --- |
| CCOC(=O)c1c(C)cc2cnc(-c3ccccc3Cl)nc2c1C [Example 1, 2-(o-chlorophenyl)-7-ethoxycarbonyl-6,8-dimethylquinazoline] | 100 | 100 | 100 | 12 | 22 | 49 |  |  |
| CCOC(=O)c1c(C)cc2cnc(-c3ccccc3)nc2c1C [Example 2, 2-phenyl-7-ethoxycarbonyl-6,8-dimethylquinazoline] |  | 100 | 100 |  |  | 15 |  |  |
| CCOC(=O)c1c(C)cc2cnc(-c3ccccc3C)nc2c1C [Example 3, 2-(o-methylphenyl)-7-ethoxycarbonyl-6,8-dimethylquinazoline] |  | 100 | 100 |  |  | 20 |  |  |
| CCOC(=O)c1c(C)cc2cnc(-c3ccccc3F)nc2c1C [Example 4, 2-(o-fluorophenyl)-7-ethoxycarbonyl-6,8-dimethylquinazoline] | 100 |  |  |  |  | 32 | 100 |  |
| CCOC(=O)c1c(C)cc2cnc(-c3ccccc3C(F)(F)F)nc2c1C [Example 5, 2-(o-trifluoromethylphenyl)-7-ethoxycarbonyl-6,8-dimethylquinazoline] |  |  |  |  |  | 25 |  | 100 |
| CCOC(=O)c1c(C)cc2cnc(C)nc2c1C [Example 6, 2-methyl-7-ethoxycarbonyl-6,8-dimethylquinazoline] |  |  |  |  |  | 12 |  | 100 |
| CCOC(=O)c1c(C)cc2cnc(Cc3ccccc3)nc2c1C [Example 7, 2-benzyl-7-ethoxycarbonyl-6,8-dimethylquinazoline] |  |  |  |  |  | 18 |  | 100 |
